# Assay results reported in ChEMBL document CHEMBL1909046, “DrugMatrix in vitro pharmacology data”.
# pIC50, pKi: −log10 of the molar value.
# Molecular target: 5-hydroxytryptamine receptor 4 (Cavia porcellus, UniProt O70528); further: in other assays of this panel Not Active means under 50% inhibition at 10 µM
# Experiment: not given
# Assay type: cell membranes, Dunkin-Hartley, Striatum, Membrane
# Conditions: not given
# Chain of 5-hydroxytryptamine receptor 4 (O70528 whole entry): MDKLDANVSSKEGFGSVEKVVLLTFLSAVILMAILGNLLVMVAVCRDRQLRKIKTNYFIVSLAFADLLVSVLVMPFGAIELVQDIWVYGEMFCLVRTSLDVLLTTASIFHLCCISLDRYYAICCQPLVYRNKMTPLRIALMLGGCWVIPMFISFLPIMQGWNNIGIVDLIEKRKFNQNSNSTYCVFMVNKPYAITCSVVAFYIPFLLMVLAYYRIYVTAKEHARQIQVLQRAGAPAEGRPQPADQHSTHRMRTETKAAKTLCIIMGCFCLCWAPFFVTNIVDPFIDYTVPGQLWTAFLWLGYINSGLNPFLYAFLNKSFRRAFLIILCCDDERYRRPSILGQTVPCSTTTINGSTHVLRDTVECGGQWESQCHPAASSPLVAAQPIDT
row,Compound,IC50
1,COc1cc2c3cc1Oc1cc(ccc1O)C[C@@H]1c4c(cc(OC)c(O)c4Oc4ccc(cc4)C[C@@H]3N(C)CC2)CC[N+]1(C)C.[Cl-],Not Active
2,CN(Cc1ccc(C(C)(C)C)cc1)Cc1cccc2ccccc12 [BUTENAFINE],Not Active
3,Sc1ncnc2nc[nH]c12 [MERCAPTOPURINE ANHYDROUS],Not Active
4,CC(C)(C)NCC(O)c1cc(Cl)c(N)c(Cl)c1 (stereo not drawn) [CLENBUTEROL],Not Active
5,Nc1nc2c(ncn2COCCO)c(=O)[nH]1 [ACYCLOVIR],Not Active
6,c1ccc2c(c1)c1cccc3ccc4cccc2c4c31 [BENZO[E]PYRENE],Not Active
7,O=C(O)CCCc1ccc(N(CCCl)CCCl)cc1 [CHLORAMBUCIL],Not Active
8,Cc1ccc(N(CC2=NCCN2)c2cccc(O)c2)cc1 [PHENTOLAMINE],Not Active
9,CC(C)(Oc1ccc(Cl)cc1)C(=O)O [CLOFIBRIC ACID],Not Active
10,CC1(C)O[C@@H]2C[C@H]3[C@@H]4CCC5=CC(=O)CC[C@]5(C)[C@@]4(F)[C@@H](O)C[C@]3(C)[C@]2(C(=O)CCl)O1 [HALCINONIDE],Not Active

# Molecular target: Vascular endothelial growth factor receptor 1 (Homo sapiens, UniProt P17948); further: in other assays of this panel Not Active means under 50% inhibition at 10 µM
# Sequence (P17948 whole entry): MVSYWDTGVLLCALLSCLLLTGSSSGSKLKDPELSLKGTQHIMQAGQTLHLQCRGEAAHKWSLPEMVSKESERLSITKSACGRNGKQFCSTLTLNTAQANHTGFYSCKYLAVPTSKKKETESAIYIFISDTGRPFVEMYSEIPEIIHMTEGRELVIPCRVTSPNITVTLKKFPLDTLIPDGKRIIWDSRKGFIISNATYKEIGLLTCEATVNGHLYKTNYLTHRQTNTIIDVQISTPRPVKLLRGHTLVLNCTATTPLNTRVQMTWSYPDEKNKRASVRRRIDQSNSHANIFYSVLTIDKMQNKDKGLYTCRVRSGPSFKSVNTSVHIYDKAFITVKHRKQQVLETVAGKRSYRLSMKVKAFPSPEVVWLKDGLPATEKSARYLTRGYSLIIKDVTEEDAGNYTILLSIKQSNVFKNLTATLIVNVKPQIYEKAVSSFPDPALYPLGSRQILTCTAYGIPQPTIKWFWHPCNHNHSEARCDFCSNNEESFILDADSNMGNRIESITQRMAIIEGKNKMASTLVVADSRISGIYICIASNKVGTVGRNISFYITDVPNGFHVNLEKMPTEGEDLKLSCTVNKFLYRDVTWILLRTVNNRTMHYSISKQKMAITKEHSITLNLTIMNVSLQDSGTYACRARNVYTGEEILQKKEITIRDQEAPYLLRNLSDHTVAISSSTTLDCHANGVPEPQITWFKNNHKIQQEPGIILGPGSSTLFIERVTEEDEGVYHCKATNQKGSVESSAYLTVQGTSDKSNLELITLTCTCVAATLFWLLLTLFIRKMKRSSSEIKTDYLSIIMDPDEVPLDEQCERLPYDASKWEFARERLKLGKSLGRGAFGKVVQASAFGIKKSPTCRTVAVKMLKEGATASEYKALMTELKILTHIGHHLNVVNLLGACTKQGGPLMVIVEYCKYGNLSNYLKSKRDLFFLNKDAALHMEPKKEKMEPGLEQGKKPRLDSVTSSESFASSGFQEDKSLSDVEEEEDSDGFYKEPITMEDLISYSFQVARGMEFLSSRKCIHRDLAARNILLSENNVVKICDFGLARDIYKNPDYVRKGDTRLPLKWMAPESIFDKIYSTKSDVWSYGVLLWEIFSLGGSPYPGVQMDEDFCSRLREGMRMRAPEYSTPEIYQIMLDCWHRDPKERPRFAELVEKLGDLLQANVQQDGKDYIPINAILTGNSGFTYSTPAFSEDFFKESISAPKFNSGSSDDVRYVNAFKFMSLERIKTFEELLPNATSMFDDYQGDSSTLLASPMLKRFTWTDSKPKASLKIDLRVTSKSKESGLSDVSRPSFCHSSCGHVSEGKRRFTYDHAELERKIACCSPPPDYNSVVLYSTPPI
# Experiment: not given
# Assay type: cell-based
# Conditions: huvec
row,Compound,IC50
1,COc1cc2c3cc1Oc1cc(ccc1O)C[C@@H]1c4c(cc(OC)c(O)c4Oc4ccc(cc4)C[C@@H]3N(C)CC2)CC[N+]1(C)C.[Cl-],Not Active
2,CN(Cc1ccc(C(C)(C)C)cc1)Cc1cccc2ccccc12 [BUTENAFINE],Not Active
3,Sc1ncnc2nc[nH]c12 [MERCAPTOPURINE ANHYDROUS],Not Active
4,CC(C)(C)NCC(O)c1cc(Cl)c(N)c(Cl)c1 (stereo not drawn) [CLENBUTEROL],Not Active
5,Nc1nc2c(ncn2COCCO)c(=O)[nH]1 [ACYCLOVIR],Not Active
6,c1ccc2c(c1)c1cccc3ccc4cccc2c4c31 [BENZO[E]PYRENE],Not Active
7,O=C(O)CCCc1ccc(N(CCCl)CCCl)cc1 [CHLORAMBUCIL],Not Active
8,Cc1ccc(N(CC2=NCCN2)c2cccc(O)c2)cc1 [PHENTOLAMINE],Not Active
9,CC(C)(Oc1ccc(Cl)cc1)C(=O)O [CLOFIBRIC ACID],Not Active
10,CC1(C)O[C@@H]2C[C@H]3[C@@H]4CCC5=CC(=O)CC[C@]5(C)[C@@]4(F)[C@@H](O)C[C@]3(C)[C@]2(C(=O)CCl)O1 [HALCINONIDE],Not Active

# System: not listed separately
# Experiment: DRUGMATRIX: Glutamate, NMDA, Phencyclidine radioligand binding (ligand: [3H] TCP)
# Assay type: cell membranes, Rattus norvegicus, Wistar, Cerebral cortex, Membrane
# Conditions: Not Active = under 50% inhibition at 10 µM
Compound,IC50,Ki
COc1cc2c3cc1Oc1cc(ccc1O)C[C@@H]1c4c(cc(OC)c(O)c4Oc4ccc(cc4)C[C@@H]3N(C)CC2)CC[N+]1(C)C.[Cl-],Not Active,Not Active
CN(Cc1ccc(C(C)(C)C)cc1)Cc1cccc2ccccc12 [BUTENAFINE],Not Active,Not Active
Sc1ncnc2nc[nH]c12 [MERCAPTOPURINE ANHYDROUS],Not Active,Not Active
CC(C)(C)NCC(O)c1cc(Cl)c(N)c(Cl)c1 (stereo not drawn) [CLENBUTEROL],Not Active,Not Active
Nc1nc2c(ncn2COCCO)c(=O)[nH]1 [ACYCLOVIR],Not Active,Not Active
c1ccc2c(c1)c1cccc3ccc4cccc2c4c31 [BENZO[E]PYRENE],Not Active,Not Active
O=C(O)CCCc1ccc(N(CCCl)CCCl)cc1 [CHLORAMBUCIL],Not Active,Not Active
Cc1ccc(N(CC2=NCCN2)c2cccc(O)c2)cc1 [PHENTOLAMINE],Not Active,Not Active
CC(C)(Oc1ccc(Cl)cc1)C(=O)O [CLOFIBRIC ACID],Not Active,Not Active
CC1(C)O[C@@H]2C[C@H]3[C@@H]4CCC5=CC(=O)CC[C@]5(C)[C@@]4(F)[C@@H](O)C[C@]3(C)[C@]2(C(=O)CCl)O1 [HALCINONIDE],Not Active,Not Active

# System: not listed separately
# Experiment: DRUGMATRIX: Imidazoline I2, Central radioligand binding (ligand: [3H] Idazoxan)
# Assay type: cell membranes, Rattus norvegicus, Wistar, Cerebral cortex, Membrane
# Conditions: Not Active = under 50% inhibition at 10 µM
Compound,IC50,Ki
COc1cc2c3cc1Oc1cc(ccc1O)C[C@@H]1c4c(cc(OC)c(O)c4Oc4ccc(cc4)C[C@@H]3N(C)CC2)CC[N+]1(C)C.[Cl-],Not Active,Not Active
CN(Cc1ccc(C(C)(C)C)cc1)Cc1cccc2ccccc12 [BUTENAFINE],Not Active,Not Active
Sc1ncnc2nc[nH]c12 [MERCAPTOPURINE ANHYDROUS],Not Active,Not Active
CC(C)(C)NCC(O)c1cc(Cl)c(N)c(Cl)c1 (stereo not drawn) [CLENBUTEROL],Not Active,Not Active
Nc1nc2c(ncn2COCCO)c(=O)[nH]1 [ACYCLOVIR],Not Active,Not Active
c1ccc2c(c1)c1cccc3ccc4cccc2c4c31 [BENZO[E]PYRENE],Not Active,Not Active
O=C(O)CCCc1ccc(N(CCCl)CCCl)cc1 [CHLORAMBUCIL],Not Active,Not Active
CC(C)(Oc1ccc(Cl)cc1)C(=O)O [CLOFIBRIC ACID],Not Active,Not Active
CC1(C)O[C@@H]2C[C@H]3[C@@H]4CCC5=CC(=O)CC[C@]5(C)[C@@]4(F)[C@@H](O)C[C@]3(C)[C@]2(C(=O)CCl)O1 [HALCINONIDE],Not Active,Not Active

# Same assay, conditions: Not Active = under 50% inhibition at 10 µM; read-out: IC50
row,Compound,pIC50
1,Cc1ccc(N(CC2=NCCN2)c2cccc(O)c2)cc1 [PHENTOLAMINE],7.24

# Same assay, conditions: Not Active = under 50% inhibition at 10 µM; read-out: Ki
row,Compound,pKi
1,Cc1ccc(N(CC2=NCCN2)c2cccc(O)c2)cc1 [PHENTOLAMINE],7.41

# Molecular target: Kappa-type opioid receptor (Homo sapiens, UniProt P41145)
# Sequence (P41145 whole entry): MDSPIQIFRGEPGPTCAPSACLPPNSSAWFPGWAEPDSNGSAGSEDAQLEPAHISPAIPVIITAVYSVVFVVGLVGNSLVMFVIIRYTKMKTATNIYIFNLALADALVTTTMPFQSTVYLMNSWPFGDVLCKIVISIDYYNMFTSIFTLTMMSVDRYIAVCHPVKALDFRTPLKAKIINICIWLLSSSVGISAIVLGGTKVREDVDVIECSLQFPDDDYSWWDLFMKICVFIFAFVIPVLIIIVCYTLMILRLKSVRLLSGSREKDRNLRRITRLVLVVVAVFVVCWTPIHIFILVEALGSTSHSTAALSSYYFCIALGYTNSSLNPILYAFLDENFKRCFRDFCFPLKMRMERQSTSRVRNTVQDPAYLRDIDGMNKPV
# Experiment: DRUGMATRIX: Opiate kappa (OP2, KOP) radioligand binding (ligand: [3H] Diprenorphine)
# Assay type: cell membranes, HEK293, Membrane
# Conditions: hek293; Not Active = under 50% inhibition at 10 µM
row,Compound,IC50
1,COc1cc2c3cc1Oc1cc(ccc1O)C[C@@H]1c4c(cc(OC)c(O)c4Oc4ccc(cc4)C[C@@H]3N(C)CC2)CC[N+]1(C)C.[Cl-],Not Active
2,CN(Cc1ccc(C(C)(C)C)cc1)Cc1cccc2ccccc12 [BUTENAFINE],Not Active
3,Sc1ncnc2nc[nH]c12 [MERCAPTOPURINE ANHYDROUS],Not Active
4,Nc1nc2c(ncn2COCCO)c(=O)[nH]1 [ACYCLOVIR],Not Active
5,c1ccc2c(c1)c1cccc3ccc4cccc2c4c31 [BENZO[E]PYRENE],Not Active
6,Cc1ccc(N(CC2=NCCN2)c2cccc(O)c2)cc1 [PHENTOLAMINE],Not Active
7,CC(C)(Oc1ccc(Cl)cc1)C(=O)O [CLOFIBRIC ACID],Not Active
8,CC1(C)O[C@@H]2C[C@H]3[C@@H]4CCC5=CC(=O)CC[C@]5(C)[C@@]4(F)[C@@H](O)C[C@]3(C)[C@]2(C(=O)CCl)O1 [HALCINONIDE],Not Active

# Molecular target: T1, Interstitial collagenase (Homo sapiens, UniProt P03956);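 further: MMP-1 enzyme inhibition assay using a peptide substrate; in other assays of this panel Not Active means under 50% inhibition at 10 µM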
# T1 sequence (P03956 whole entry): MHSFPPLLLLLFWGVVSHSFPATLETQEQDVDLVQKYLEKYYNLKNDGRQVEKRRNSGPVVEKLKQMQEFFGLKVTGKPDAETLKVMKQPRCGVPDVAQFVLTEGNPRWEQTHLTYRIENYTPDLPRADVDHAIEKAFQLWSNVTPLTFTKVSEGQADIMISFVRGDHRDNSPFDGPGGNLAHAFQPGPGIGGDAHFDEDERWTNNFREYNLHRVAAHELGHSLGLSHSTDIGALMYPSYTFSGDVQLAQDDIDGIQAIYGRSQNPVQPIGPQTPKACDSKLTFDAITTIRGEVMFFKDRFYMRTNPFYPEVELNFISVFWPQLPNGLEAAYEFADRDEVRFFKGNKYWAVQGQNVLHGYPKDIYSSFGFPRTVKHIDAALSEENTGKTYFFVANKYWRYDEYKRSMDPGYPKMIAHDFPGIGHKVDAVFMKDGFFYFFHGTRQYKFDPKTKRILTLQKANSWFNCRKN
# Experiment: biochemical
# Assay type: tissue-based, Rheumatoid synovial fibroblasts
# Conditions: not given
row,Compound,IC50
1,COc1cc2c3cc1Oc1cc(ccc1O)C[C@@H]1c4c(cc(OC)c(O)c4Oc4ccc(cc4)C[C@@H]3N(C)CC2)CC[N+]1(C)C.[Cl-],Not Active
2,CN(Cc1ccc(C(C)(C)C)cc1)Cc1cccc2ccccc12 [BUTENAFINE],Not Active
3,Sc1ncnc2nc[nH]c12 [MERCAPTOPURINE ANHYDROUS],Not Active
4,CC(C)(C)NCC(O)c1cc(Cl)c(N)c(Cl)c1 (stereo not drawn) [CLENBUTEROL],Not Active
5,Nc1nc2c(ncn2COCCO)c(=O)[nH]1 [ACYCLOVIR],Not Active
6,c1ccc2c(c1)c1cccc3ccc4cccc2c4c31 [BENZO[E]PYRENE],Not Active
7,O=C(O)CCCc1ccc(N(CCCl)CCCl)cc1 [CHLORAMBUCIL],Not Active
8,Cc1ccc(N(CC2=NCCN2)c2cccc(O)c2)cc1 [PHENTOLAMINE],Not Active
9,CC(C)(Oc1ccc(Cl)cc1)C(=O)O [CLOFIBRIC ACID],Not Active
10,CC1(C)O[C@@H]2C[C@H]3[C@@H]4CCC5=CC(=O)CC[C@]5(C)[C@@]4(F)[C@@H](O)C[C@]3(C)[C@]2(C(=O)CCl)O1 [HALCINONIDE],Not Active

# Molecular target: Matrix metalloproteinase-9 (Homo sapiens, UniProt P14780);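 further: inhibition of isolated MMP-9 enzyme activity toward a synthetic peptide substrate, from the DrugMatrix protease screening panel; in other assays of this panel Not Active means under 50% inhibition at 10 µM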
# Sequence (P14780 whole entry): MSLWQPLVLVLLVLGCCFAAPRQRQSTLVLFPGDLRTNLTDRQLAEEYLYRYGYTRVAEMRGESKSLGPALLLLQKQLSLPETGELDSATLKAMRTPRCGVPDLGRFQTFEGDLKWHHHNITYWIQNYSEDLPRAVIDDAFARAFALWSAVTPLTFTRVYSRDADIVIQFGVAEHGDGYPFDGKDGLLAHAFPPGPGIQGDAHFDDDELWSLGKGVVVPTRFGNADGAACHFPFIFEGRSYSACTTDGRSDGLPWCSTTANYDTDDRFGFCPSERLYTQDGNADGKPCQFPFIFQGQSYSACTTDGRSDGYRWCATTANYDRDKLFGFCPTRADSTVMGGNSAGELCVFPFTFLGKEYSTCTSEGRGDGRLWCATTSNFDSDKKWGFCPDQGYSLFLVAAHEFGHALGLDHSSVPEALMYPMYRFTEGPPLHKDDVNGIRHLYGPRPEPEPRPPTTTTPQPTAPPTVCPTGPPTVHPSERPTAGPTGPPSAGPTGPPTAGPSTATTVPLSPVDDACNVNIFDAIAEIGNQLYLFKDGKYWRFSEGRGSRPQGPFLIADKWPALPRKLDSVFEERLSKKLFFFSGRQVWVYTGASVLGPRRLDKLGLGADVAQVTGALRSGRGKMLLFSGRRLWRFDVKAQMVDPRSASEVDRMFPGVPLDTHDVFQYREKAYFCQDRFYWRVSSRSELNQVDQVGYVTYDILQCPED
# Experiment: biochemical
# Assay type: cell-based
# Conditions: not given
row,Compound,IC50
1,COc1cc2c3cc1Oc1cc(ccc1O)C[C@@H]1c4c(cc(OC)c(O)c4Oc4ccc(cc4)C[C@@H]3N(C)CC2)CC[N+]1(C)C.[Cl-],Not Active
2,CN(Cc1ccc(C(C)(C)C)cc1)Cc1cccc2ccccc12 [BUTENAFINE],Not Active
3,Sc1ncnc2nc[nH]c12 [MERCAPTOPURINE ANHYDROUS],Not Active
4,CC(C)(C)NCC(O)c1cc(Cl)c(N)c(Cl)c1 (stereo not drawn) [CLENBUTEROL],Not Active
5,Nc1nc2c(ncn2COCCO)c(=O)[nH]1 [ACYCLOVIR],Not Active
6,c1ccc2c(c1)c1cccc3ccc4cccc2c4c31 [BENZO[E]PYRENE],Not Active
7,O=C(O)CCCc1ccc(N(CCCl)CCCl)cc1 [CHLORAMBUCIL],Not Active
8,Cc1ccc(N(CC2=NCCN2)c2cccc(O)c2)cc1 [PHENTOLAMINE],Not Active
9,CC(C)(Oc1ccc(Cl)cc1)C(=O)O [CLOFIBRIC ACID],Not Active
10,CC1(C)O[C@@H]2C[C@H]3[C@@H]4CCC5=CC(=O)CC[C@]5(C)[C@@]4(F)[C@@H](O)C[C@]3(C)[C@]2(C(=O)CCl)O1 [HALCINONIDE],Not Active
